Numbering of substitutions follows the chain as printed.
Legend:
Type in all cases: binding
Xenopus tropicalis Opn5m [1] = target: T1, Xenopus tropicalis Opn5m (Xenopus tropicalis, UniProt A0A8J0QRX8, L208F); assay: absorption spectrum of purified reconstituted pigment, difference spectrum; details: covalent; 40 uM all-trans retinal added to collected cell membranes, dark versus yellow light (>500 nm), 0 °C, pH 6.5; spectral value, no affinity
T1 construct: gene opn5; 21 residues truncated from the C-terminus; expressed in HEK293S cells; purified in DDM on Rho1D4-agarose
T1 sequence (A0A8J0QRX8 1-322 L208F): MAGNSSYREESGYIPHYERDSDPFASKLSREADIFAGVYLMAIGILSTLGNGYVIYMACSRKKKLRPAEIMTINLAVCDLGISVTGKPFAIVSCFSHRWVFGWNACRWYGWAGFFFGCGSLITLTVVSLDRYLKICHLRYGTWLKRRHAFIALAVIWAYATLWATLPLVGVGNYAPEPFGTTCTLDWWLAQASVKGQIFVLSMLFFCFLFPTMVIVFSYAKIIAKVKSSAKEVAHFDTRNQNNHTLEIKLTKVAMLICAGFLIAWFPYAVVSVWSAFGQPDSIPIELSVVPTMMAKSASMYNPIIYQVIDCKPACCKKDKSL

Xenopus tropicalis Opn5m [2] = target: T2, Xenopus tropicalis Opn5m (Xenopus tropicalis, UniProt A0A8J0QRX8, T184S); assay: as above; details: covalent; all-trans retinal added, dark versus yellow light (>500 nm), 0 °C, pH 6.5; spectral value, no affinity
T2 construct: gene opn5; 21 residues truncated from the C-terminus; expressed in HEK293S cells; purified in DDM on Rho1D4-agarose
T2 sequence (A0A8J0QRX8 1-322 T184S): T1 sequence (A0A8J0QRX8 1-322 L208F) with T184S, F208L

Xenopus tropicalis Opn5m [3] = target: T3, Xenopus tropicalis Opn5m (Xenopus tropicalis, UniProt A0A8J0QRX8, T184M); assay: as above; details: covalent; all-trans retinal added, dark versus yellow light (>500 nm), 0 °C, pH 6.5; spectral value, no affinity
T3 construct: gene opn5; 21 residues truncated from the C-terminus; expressed in HEK293S cells; purified in DDM on Rho1D4-agarose
T3 sequence (A0A8J0QRX8 1-322 T184M): T1 sequence (A0A8J0QRX8 1-322 L208F) with T184M, F208L

Xenopus tropicalis Opn5m [4] = target: T4, Xenopus tropicalis Opn5m (Xenopus tropicalis, UniProt A0A8J0QRX8, T184G); assay: as above; details: covalent; all-trans retinal added, dark versus yellow light (>500 nm), 0 °C, pH 6.5; spectral value, no affinity
T4 construct: gene opn5; 21 residues truncated from the C-terminus; expressed in HEK293S cells; purified in DDM on Rho1D4-agarose
T4 sequence (A0A8J0QRX8 1-322 T184G): T1 sequence (A0A8J0QRX8 1-322 L208F) with T184G, F208L

Xenopus tropicalis Opn5m [5] = target: T5, Xenopus tropicalis Opn5m (Xenopus tropicalis, UniProt A0A8J0QRX8, T184N); assay: as above; details: covalent; all-trans retinal added, dark versus yellow light (>500 nm), 0 °C, pH 6.5; spectral value, no affinity
T5 construct: gene opn5; 21 residues truncated from the C-terminus; expressed in HEK293S cells; purified in DDM on Rho1D4-agarose
T5 sequence (A0A8J0QRX8 1-322 T184N): T1 sequence (A0A8J0QRX8 1-322 L208F) with T184N, F208L

Xenopus tropicalis Opn5m [6] = target: T6, Xenopus tropicalis Opn5m (Xenopus tropicalis, UniProt A0A8J0QRX8, T184A); assay: as above; details: covalent; all-trans retinal added, dark versus yellow light (>500 nm), 0 °C, pH 6.5; spectral value, no affinity
T6 construct: gene opn5; 21 residues truncated from the C-terminus; expressed in HEK293S cells; purified in DDM on Rho1D4-agarose
T6 sequence (A0A8J0QRX8 1-322 T184A): T1 sequence (A0A8J0QRX8 1-322 L208F) with T184A, F208L

Xenopus tropicalis Opn5m [7] = target: T7, Xenopus tropicalis Opn5m (Xenopus tropicalis, UniProt A0A8J0QRX8, T184Q); assay: as above; details: covalent; all-trans retinal added, dark versus yellow light (>500 nm), 0 °C, pH 6.5; spectral value, no affinity
T7 construct: gene opn5; 21 residues truncated from the C-terminus; expressed in HEK293S cells; purified in DDM on Rho1D4-agarose
T7 sequence (A0A8J0QRX8 1-322 T184Q): T1 sequence (A0A8J0QRX8 1-322 L208F) with T184Q, F208L

Xenopus tropicalis Opn5m [8] = target: T8, Xenopus tropicalis Opn5m (Xenopus tropicalis, UniProt A0A8J0QRX8); assay: as above; details: covalent; all-trans retinal added, dark versus yellow light (>500 nm), 0 °C, pH 6.5; spectral value, no affinity
T8 construct: gene opn5; 21 residues truncated from the C-terminus; expressed in HEK293S cells; purified in DDM on Rho1D4-agarose
T8 sequence (A0A8J0QRX8 1-322): T1 sequence (A0A8J0QRX8 1-322 L208F) with F208L

Xenopus tropicalis Opn5m [9] = target: T9, Xenopus tropicalis Opn5m (Xenopus tropicalis, UniProt A0A8J0QRX8, T184C); assay: as above; details: covalent; all-trans retinal added, dark versus yellow light (>500 nm), 0 °C, pH 6.5; spectral value, no affinity
T9 construct: gene opn5; 21 residues truncated from the C-terminus; expressed in HEK293S cells; purified in DDM on Rho1D4-agarose
T9 sequence (A0A8J0QRX8 1-322 T184C): T1 sequence (A0A8J0QRX8 1-322 L208F) with T184C, F208L

Xenopus tropicalis Opn5m [10] = target: T10, Xenopus tropicalis Opn5m (Xenopus tropicalis, UniProt A0A8J0QRX8, W163F); assay: reconstitution, purification, HPLC of retinal oximes; details: covalent; 40 uM 11-cis retinal added to collected cell membranes, 4 °C, 24 h, dark; pH 6.5; isomer composition, no affinity
T10 construct: gene opn5; 21 residues truncated from the C-terminus; expressed in HEK293S cells; purified in DDM on Rho1D4-agarose
T10 sequence (A0A8J0QRX8 1-322 W163F): T1 sequence (A0A8J0QRX8 1-322 L208F) with W163F, F208L

Xenopus tropicalis Opn5m [11] = target: T8, Xenopus tropicalis Opn5m; assay: as above; details: covalent; 40 uM 11-cis retinal added to collected cell membranes, 4 °C, 24 h, dark; pH 6.5; isomer composition, no affinity
Xenopus tropicalis Opn5m [12] = target: T1, Xenopus tropicalis Opn5m; assay: as above; details: covalent; 40 uM 11-cis retinal added to collected cell membranes, 4 °C, 24 h, dark; pH 6.5; isomer composition, no affinity

λmax (Xenopus tropicalis Opn5m [1]) | λmax (Xenopus tropicalis Opn5m [2]) | λmax (Xenopus tropicalis Opn5m [3]) | λmax (Xenopus tropicalis Opn5m [4]) | λmax (Xenopus tropicalis Opn5m [5]) | λmax (Xenopus tropicalis Opn5m [6]) | λmax (Xenopus tropicalis Opn5m [7]) | λmax (Xenopus tropicalis Opn5m [8]) | λmax (Xenopus tropicalis Opn5m [9]) | % of bound retinal as 11-cis isomer (Xenopus tropicalis Opn5m [10]) | % of bound retinal as 11-cis isomer (Xenopus tropicalis Opn5m [11]) | % of bound retinal as 11-cis isomer (Xenopus tropicalis Opn5m [12]) | SMILES
475 nm | 478 nm | 467 nm | 477 nm | 460 nm | 481 nm | 483 nm | 474 nm | 470 nm |  |  |  | CC1=C(/C=C/C(C)=C/C=C/C(C)=C/C=O)C(C)(C)CCC1 [all-trans retinal]
 |  |  |  |  |  |  |  |  | 84% | 91% | 88% | CC1=C(/C=C/C(C)=C/C=C\C(C)=C\C=O)C(C)(C)CCC1 [11-cis retinal]

From publication PMC8766551, “Amino acid residue at position 188 determines the UV-sensitive bistable property of vertebrate non-visual opsin Opn5” (Communications Biology, 2022)
